In patent US6767906B2, “2-amino-6-anilino-purines and their use as medicaments” (Novartis AG, priority 1999, dated 2004):

Compound `CC(C)n1cnc2c(Nc3cccc(NC(=O)c4ccc(-c5ccccc5)cc4)c3)nc(NC3CCC(O)CC3)nc21` (stereo not shown) [Example 101, Biphenyl-4-carboxylic acid {3-[2-(4-hydroxy-cyclohexylamino)-9-isopropyl-9H-purin-6-ylamino]-phenyl]-amide] has a melting point of 226 to 228 °C.
